Assay results published in US11365187B2, “Pesticidally active pyrazole derivatives” (SYNGENTA PARTICIPATIONS AG, priority 2017, dated 2022).
Read-outs that look alike come from different tables or passages of the source.

What was measured:
Assay type in all cases: in vivo
[1] = system: Plutella xylostella (Diamond back moth); assay: Plutella xylostella feeding/contact activity on artificial diet; conditions: 120 h
Protocol: Plutella xylostella (Diamond back moth): Feeding/contact activity
24-well microtiter plates with artificial diet were treated with aqueous test solutions prepared from 10′000 ppm DMSO stock solutions by pipetting. After drying, the plates were infested with L2 larvae (10 to 15 per well). The samples were assessed for mortality 5 days after infestation.

[2] = system: Tetranychus urticae (Two-spotted spider mite); assay: Tetranychus urticae feeding/contact activity on bean leaf discs; conditions: foliar, 192 h, read-out: mortality on mixed population (mobile stages)
Protocol: Tetranychus urticae (Two-spotted spider mite): Feeding/contact activity
Bean leaf discs on agar in 24-well microtiter plates were sprayed with aqueous test solutions prepared from 10′000 ppm DMSO stock solutions. After drying the leaf discs were infested with a mite population of mixed ages. The samples were assessed for mortality on mixed population (mobile stages) 8 days after infestation.

[3] = system: Spodoptera littoralis (Egyptian cotton leaf worm); assay: Spodoptera littoralis feeding/contact activity on cotton leaf discs; conditions: foliar, 72 h
Protocol: Spodoptera littoralis (Egyptian cotton leaf worm): Feeding/contact activity
Cotton leaf discs were placed onto agar in 24-well microtiter plates and sprayed with aqueous test solutions prepared from 10′000 ppm DMSO stock solutions. After drying the leaf discs were infested with five L1 larvae. The samples were assessed for mortality 3 days after infestation. […] 2, 3, 4, 5, 6, 7, 8, 9, 10, 11, 12, 13, 14, 15, 16, 17, 18, 19, 20, 21, 22, 23, 24, 25, 26, 27, 28 and 29.

[4] = system: Myzus persicae (Green peach aphid); assay: Myzus persicae feeding/contact activity on sunflower leaf discs; conditions: foliar, 144 h
Protocol: Myzus persicae (Green peach aphid): Feeding/Contact activity
Sunflower leaf discs were placed onto agar in a 24-well microtiter plate and sprayed with aqueous test solutions prepared from 10′000 ppm DMSO stock solutions. After drying, the leaf discs were infested with an aphid population of mixed ages. The samples were assessed for mortality 6 days after infestation.

[5] = system: Euschistus heros (Neotropical Brown Stink Bug); assay: Euschistus heros feeding/contact activity on soybean leaves; conditions: 120 h
Protocol: Euschistus heros (Neotropical Brown Stink Bug): Feeding/contact activity
Soybean leaves on agar in 24-well microtiter plates were sprayed with aqueous test solutions prepared from 10′000 ppm DMSO stock solutions. After drying the leaves were infested with N2 nymphs. The samples were assessed for mortality 5 days after infestation.

[6] = application rate 200 ppm, L1 larvae, assessed 3 days after infestation, read-out: mortality
[7] = application rate 200 ppm, N2 nymphs, assessed 5 days after infestation, read-out: mortality
[8] = application rate 200 ppm, L2 larvae, assessed 5 days after infestation, read-out: mortality
[9] = application rate 200 ppm, mite population of mixed ages, assessed 8 days after infestation
[10] = application rate 200 ppm, aphid population of mixed ages, assessed 6 days after infestation, read-out: mortality

Measured: mortality at 200 ppm

COC(=O)N(C(=O)c1cc(-c2cnn(-c3c(OC(F)F)c(C(F)(C(F)(F)F)C(F)(F)F)nn3C)c2)ccc1Cl)C1CC1 [Example 23, methyl N-[2-chloro-5-[1-[4-(difluoromethoxy)-2-methyl-5-[1,2,2,2-tetrafluoro-1-(trifluoromethyl)ethyl]pyrazol-3-yl]pyrazol-4-yl]benzoyl]-N-cyclopropyl-carbamate]
≥ 80%: [1] | [2] | [3] | [4] | [5]

CC(C)CN(C(=O)c1cc(-c2cnn(-c3c(OC(F)F)c(C(F)(C(F)(F)F)C(F)(F)F)nn3C)c2)ccc1Cl)C1(C#N)CC1 [Example 21, 2-chloro-N-(1-cyanocyclopropyl)-5-[1-[4-(difluoromethoxy)-2-methyl-5-[1,2,2,2-tetrafluoro-1-(trifluoromethyl)ethyl]pyrazol-3-yl]pyrazol-4-yl]-N-isobutyl-benzamide]
≥ 80%: [3]; [6] | [5]; [7]

COCC(=O)N(C(=O)c1cc(-c2cnn(-c3c(OC(F)F)c(C(F)(C(F)(F)F)C(F)(F)F)nn3C)c2)ccc1Cl)C1CC1 [Example 22, 2-chloro-N-cyclopropyl-5-[1-[-4-(difluoromethoxy)-2-methyl-5-[1,2,2,2-tetrafluoro-1-(trifluoromethyl)ethyl]pyrazol-3-yl]pyrazol-4-yl]-N-(2-methoxyacetyl)benzamide]
≥ 80%: [1]; [8] | [2]; [9] | [3]; [6] | [4]; [10] | [5]; [7]

CC(C)N(C(=O)c1cc(-c2cnn(-c3c(OC(F)F)c(C(F)(C(F)(F)F)C(F)(F)F)nn3C)c2)ccc1Cl)C1(C#N)CC1 [Example 5, 2-chloro-N-(1-cyanocyclopropyl)-5-[1-[4-(difluoromethoxy)-2-methyl-5-[1,2,2,2-tetrafluoro-1-(trifluoromethyl)ethyl]pyrazol-3-yl]pyrazol-4-yl]-N-isopropyl-benzamide]
≥ 80%: [3]; [6] | [5]; [7]

CCOCN(C(=O)c1cc(-c2cnn(-c3c(OC(F)F)c(C(F)(C(F)(F)F)C(F)(F)F)nn3C)c2)ccc1Cl)C1CC1 [Example 27, 2-chloro-N-cyclopropyl-5-[1-[4-(difluoromethoxy)-2-methyl-5-[1,2,2,2-tetrafluoro-1-(trifluoromethyl)ethyl]pyrazol-3-yl]pyrazol-4-yl]-N-(ethoxymethyl)benzamide]
≥ 80%: [1]; [8] | [2]; [9] | [3]; [6] | [4]; [10] | [5]; [7]

Cn1nc(C(F)(C(F)(F)F)C(F)(F)F)c(OC(F)F)c1-n1cc(-c2ccc(Cl)c(C(=O)NC3CC3)c2)cn1 [Example 17, 2-chloro-N-cyclopropyl-5-[1-[4-(difluoromethoxy)-2-methyl-5-[1,2,2,2-tetrafluoro-1-(trifluoromethyl)ethyl]pyrazol-3-yl]pyrazol-4-yl]benzamide]
≥ 80%: [1]; [8] | [2]; [9] | [3]; [6] | [4]; [10] | [5]; [7]

COCN(C(=O)c1cc(-c2cnn(-c3c(OC(F)F)c(C(F)(C(F)(F)F)C(F)(F)F)nn3C)c2)ccc1Cl)C1CC1 [Example 28, 2-chloro-N-cyclopropyl-5-[1-[4-(difluoromethoxy)-2-methyl-5-[1,2,2,2-tetrafluoro-1-(trifluoromethyl)ethyl]pyrazol-3-yl]pyrazol-4-yl]-N-(methoxymethyl)benzamide]
≥ 80%: [1]; [8] | [2]; [9] | [3]; [6] | [4]; [10] | [5]; [7]

COCCN(C(=O)c1cc(-c2cnn(-c3c(OC(F)F)c(C(F)(C(F)(F)F)C(F)(F)F)nn3C)c2)ccc1Cl)C1(C#N)CC1 [Example 7, 2-chloro-N-(1-cyanocyclopropyl)-5-[1-[4-(difluoromethoxy)-2-methyl-5-[1,2,2,2-tetrafluoro-1-(trifluoromethyl)ethyl]pyrazol-3-yl]pyrazol-4-yl]-N-(2-methoxyethyl)benzamide]
≥ 80%: [1]; [8] | [2]; [9] | [3]; [6] | [4]; [10] | [5]; [7]

CN(C(=O)c1cc(-c2cnn(-c3c(OC(F)F)c(C(F)(C(F)(F)F)C(F)(F)F)nn3C)c2)ccc1Cl)C1CC1 [Example 25, 2-chloro-N-cyclopropyl-5-[1-[4-(difluoromethoxy)-2-methyl-5-[1,2,2,2-tetrafluoro-1-(trifluoromethyl)ethyl]pyrazol-3-yl]pyrazol-4-yl]-N-methyl-benzamide]
≥ 80%: [1]; [8] | [2]; [9] | [3]; [6] | [4]; [10] | [5]; [7]

Cn1nc(C(F)(C(F)(F)F)C(F)(F)F)c(OC(F)F)c1-n1cc(-c2ccc(Cl)c(C(=O)N(CC#N)C3(C#N)CC3)c2)cn1 [Example 11, 2-chloro-N-(1-cyanocyclopropyl)-N-(cyanomethyl)-5-[1-[4-(difluoromethoxy)-2-methyl-5-[1,2,2,2-tetrafluoro-1-(trifluoromethyl)ethyl]pyrazol-3-yl]pyrazol-4-yl]benzamide]
≥ 80%: [1]; [8] | [2]; [9] | [3]; [6] | [4]; [10] | [5]; [7]

CCCN(C(=O)c1cc(-c2cnn(-c3c(OC(F)F)c(C(F)(C(F)(F)F)C(F)(F)F)nn3C)c2)ccc1Cl)C1(C#N)CC1 [Example 14, 2-chloro-N-(1-cyanocyclopropyl)-5-[1 - [4-(difluoromethoxy)-2-methyl-5-[1,2,2,2-tetrafluoro-1-(trifluoromethyl)ethyl]pyrazol-3-yl]pyrazol-4-yl]-N-propyl-benzamide]
≥ 80%: [3]; [6] | [5]; [7]

CCOCCN(C(=O)c1cc(-c2cnn(-c3c(OC(F)F)c(C(F)(C(F)(F)F)C(F)(F)F)nn3C)c2)ccc1Cl)C1(C#N)CC1 [Example 13, 2-chloro-N-(1-cyanocyclopropyl)-5-[1-[4-(difluoromethoxy)-2-methyl-5-[1,2,2,2-tetrafluoro-1-(trifluoromethyl)ethyl]pyrazol-3-yl]pyrazol-4-yl]-N-(2-ethoxyethyl)benzamide]
≥ 80%: [1]; [8] | [2]; [9] | [3]; [6] | [4]; [10]

Cn1nc(C(F)(C(F)(F)F)C(F)(F)F)c(OC(F)F)c1-n1cc(-c2ccc(Cl)c(C(=O)N(C(=O)OCCl)C3(C#N)CC3)c2)cn1 [Example 29, chloromethyl N-[2-chloro-5-[1-[4-(difluoromethoxy)-2-methyl-5-[1,2,2,2-tetrafluoro-1-(trifluoromethyl)ethyl]pyrazol-3-yl]pyrazol-4-yl]benzoyl]-N-(1-cyanocyclopropyl)carbamate]
≥ 80%: [1] | [2] | [3] | [4] | [5]

CC(C)OC(=O)N(C(=O)c1cc(-c2cnn(-c3c(OC(F)F)c(C(F)(C(F)(F)F)C(F)(F)F)nn3C)c2)ccc1Cl)C1CC1 [Example 24, isopropyl N-[2-chloro-5-[1-[4-(difluoromethoxy)-2-methyl-5-[1,2,2,2-tetrafluoro-1-(trifluoromethyl)ethyl]pyrazol-3-yl]pyrazol-4-yl]benzoyl]-N-cyclopropyl-carbamate]
≥ 80%: [1] | [2] | [3] | [4] | [5]

CC(C)OCN(C(=O)c1cc(-c2cnn(-c3c(OC(F)F)c(C(F)(C(F)(F)F)C(F)(F)F)nn3C)c2)ccc1Cl)C1(C#N)CC1 [Example 2, 2-chloro-N-(1-cyanocyclopropyl)-5-[1-[4-(difluoromethoxy)-2-methyl-5-[1,2,2,2-tetrafluoro-1-(trifluoromethyl)ethyl]pyrazol-3-yl]pyrazol-4-yl]-N-(isopropoxymethyl)benzamide]
≥ 80%: [1]; [8] | [2]; [9] | [3]; [6] | [4]; [10] | [5]; [7]

CC(C)OC(=O)N(C(=O)c1cc(-c2cnn(-c3c(OC(F)F)c(C(F)(C(F)(F)F)C(F)(F)F)nn3C)c2)ccc1Cl)C1(C#N)CC1 [Example 20, isopropyl N-[2-chloro-5-[1-[4-(difluoromethoxy)-2-methyl-5-[1,2,2,2-tetrafluoro-1-(trifluoromethyl)ethyl]pyrazol-3-yl]pyrazol-4-yl]benzoyl]-N-(1-cyanocyclopropyl)carbamate]
≥ 80%: [1] | [3] | [4] | [5]
